Common to all, as to type: in vivo
Assay [1] concerns primary antibody response to sheep's red corpuscles (SRBC), thymo-dependent antigen. As to the kind of experiment: Primary antibody response to SRBC, direct haemolysis plaque (PFC/spleen, IgM) in immunized mice. The protocol: (§1) More particularly, the immunostimulating activity of peptides 163-171 TFA and 163-171.HCl were assayed in the antibody response to sheep's red blood compuscles, thymo-dependent antigens and in response to the polysaccharide of Streptococcus pneumoniae serotype 3 (SIII), a thymo-independent antigen having low immunogenicity by using the method of haemolysis of plaques described by Cunningham A. J. and Szenberg (Immunology, 14, 599, 1968).
The method consists in determining the number of cells which secrete antibodies specific to a given antigen. It consists in immunizing mice with the antigen to be assayed, placing lymphocytes obtained from the spleen of the immunized mice in contact with the same antigen, and finally in detecting the haemolysis plaques by adding complement.
Lysis zones (plaque-forming cells PFC) are observed at the place where the antigen-antibody reaction occurs, i.e. at each cell producing specific antibodies.
(§2) According to the invention, therefore, anti-body secreting cells of Classes IgM and IgG are determined by isolating lymphocytes from the spleen of mice immunized with SRBC and SIII antigens and treated by various methods and with various doses of peptide 163-171.TFA and peptide 163-171.HCl. To this end use has been made with identical results of inbred male C3H/HeNCr1BR mice and male and female C3H/HeJ mice weighing about 25 g. According to the invention, SRBC and SIII antigens previously dissolved in phosphate buffer (PBS) were inoculated in the mice, intravenously and intraperitoneally respectively, at a concentration of 1-2×10^8 SRBC/0.2 ml of PBS and 0.5 μg/0.5 ml of PBS. […]
The slides, sealed at the edges with paraffin, were then incubated in a thermostat at 37° C. for one hour. At the end of this period, the plaques of direct haemolysis were counted using a light-contrast visor, indicating the number of lymphocytes secreting antibodies (PFC). The thus-detected antibodies were in Class IgM, specific to the primary antibody response. […]

The test system of assay [2] is secondary antibody response to SRBC. Kind of assay: Secondary antibody response to SRBC, total PFC/spleen (IgM+IgG) in immunized mice. The conditions noted are these: measured four days later, PBS control 29.992. The method, then: The number of IgG class antibody-secreting cells characteristic of the secondary response is determined, before the complement is added, by adding a direct rabbit antiserum against mouse immunoglobulins.
According to the invention, therefore, anti-body secreting cells of Classes IgM and IgG are determined by isolating lymphocytes from the spleen of mice immunized with SRBC and SIII antigens and treated by various methods and with various doses of peptide 163-171.TFA and peptide 163-171.HCl. To this end use has been made with identical results of inbred male C3H/HeNCr1BR mice and male and female C3H/HeJ mice weighing about 25 g. According to the invention, SRBC and SIII antigens previously dissolved in phosphate buffer (PBS) were inoculated in the mice, intravenously and intraperitoneally respectively, at a concentration of 1-2×10^8 SRBC/0.2 ml of PBS and 0.5 μg/0.5 ml of PBS.
Mice immunized with SRBC as in Example 1 hereinbefore were intraperitoneally re-inoculated four days after the first inoculation with a similar dose of SRBC antigens and simultaneously with 12, 36, 100 mg/kg peptide 163-171.TFA and 500 - 1000 - 2000 U/kg of human IL-1-β.
The immunostimulating activity of the peptide on the secondary response to SRBC was also determined by administering the same doses of peptide and human IL-1β but only with the first inoculation.
Four days after the second dose the mice were killed and the number of PFC/spleen was determined as in Example 1, after combining the complement with a rabbit serum against mouse immunoglobulin at a final dilution of 1:200.
^a The mice intravenously inoculated with 1-2 × 10^8 SRBC o
day -10 and were given a similar dose on day 0 and simultaneously treated
intraperitoneally with PBS (control) or with various doses of peptide
163-171.TFA or hu rIL1β. The total number of antiSRBC PFC was
measured four days after the second inoculation of antigen.
The procedure was the same as in Example 4, the antigen being intravenously inoculated together with preparations of peptide 163-171.TFA and 163-171.HCl (from 100 pg/kg to 100 μg/kg in PBS).

Assay [3] concerns primary response to polysaccharide of Streptococcus pneumoniae serotype 3 (SIII). As to the kind of experiment: Primary antibody response to thymo-independent antigen SIII, PFC/spleen in immunized mice. The conditions noted are these: 500 U/kg intraperitoneally. The method, then: as §1, §2
The adjuvant activity of peptide 163-171.TFA and of human IL-1-β were then determined as in Example 1 by using 25 μl of a 10% suspension of SIII antigen conjugated with SRBC by chromium chloride in PBS (Baker P. J. et al. Appl. Microbiol. 17, 422 (1969)). […]

On to “hu rIL-1β: human interleukin 1β (Genzyme Corporation Boston), comparator adjuvant”, for which the “Statistical significance versus control of PFC/spleen, primary response to SRBC (FIG. 1-B)” value in assay [1] (4000 U/kg intraperitoneally) is recorded as “non-significant”. Further, in assay [1] (intraperitoneal, peptide 12-100 mg/kg, IL-1β 500-4000 U/kg, depending on the dose), the “Effect on number of plaques/spleen, primary response to SRBC (FIGS. 1A, 1B)” value is reported as “increase in the number of plaques/spleen”. In addition, in assay [1] (intravenous, response not specified), the Optimum intravenous dose was found to be 0.0001 µg/kg. Moreover, the “Average of total anti-SRBC PFC-spleen (95% confidence limits)” value in assay [2] (500 U/kg intraperitoneally with second SRBC inoculum (day 0)) is 59.841 (45.604-78.343) PFC-spleen; in assay [2] (1000 U/kg intraperitoneally with second SRBC inoculum (day 0)), 77.624 (61.502-97.499) PFC-spleen; in assay [2] (2000 U/kg intraperitoneally with second SRBC inoculum (day 0)), 100.000 (84.139-118.850) PFC-spleen; in assay [2] (4000 U/kg intraperitoneally with second SRBC inoculum (day 0)), 42.364 (29.853-59.979) PFC-spleen. The “Statistical significance versus control of PFC/spleen, primary response to SIII (FIG. 5)” value in assay [3] is recorded as “non-significant”.

(Values after patent US5206014A, “Synthetic nonapeptide for use as an adjuvant” (Sclavo, S.p.A., priority 1987, dated 1993).)
